According to patent publication EP1393728A1, “Inverse agonists acting at virus-encoded G protein-coupled receptors” (priority 2002, dated 2004):

How the values were obtained:
US28 [1] = target: T1, US28 (Human cytomegalovirus, UniProt P69332); test: cell-based; design: species or system HCMV; conditions: for % 10^-5 remaining activity on US28 in inositol phosphate assay: at 10^-5; for loss in inverse agonistic potency: relative to the compound of Formula X; for inverse agonistic effect at US28 relative to the compound of Formula X (statement in words): structure-activity discussion of Table 1
Protocol: (§1) Cell culture, transfection and infection with HCMV. COS-7 cells were grown as previously described in the cited Casarosa reference. Transfection of the COS-7 cells was performed by DEAE-dextran, using 2 µg of DNA of each US28 construct per million cells. Human foreskin fibroblasts (HFFs) were cultured and infected with […] (strain AD169) or a deletion mutant Δ28-HCMV.
(§2) [^3H]-inositol phosphate production. Experiments in COS-7 cells and HFFs were performed as described in the references mentioned in the previous paragraph.
Data analysis. Curve fitting of data was carried out using the program Prism and IC50 values obtained by nonlinear regression analysis (GraphPad Software, Inc., San Diego, USA). Data are expressed as mean ± S.E.
In order to find inverse agonists for US28, a variety of compounds were screened for modulation of US28-mediated constitutive inositol phosphate (InsP) production. This approach led to identify the compound of Formula X as inverse agonist for US28.

US28 [2] = target: T1, US28; assay type: binding, HCMV; conditions: in the presence of 10 µM compound of Formula X (725 ± 69 in its absence)
Protocol: (§3) Binding experimants. Labeling of RANTES (Peprotech, Rocky Hill, USA) with [^125I] and binding in COS-7 cells were performed as previously described (Gruijthuijsen et al., J. Virol. 76 (2002) 1328-1338).
Moreover, the present inventors investigated the effect of the compound of Formula X in a saturation binding assay of [^125I]-RANTES.

E^277A-US28 = E^277A-US28 (Human cytomegalovirus, UniProt P69332, E277A); assay type: binding, HCMV; conditions: E277A-US28, [125I]-RANTES displacement
Source text: (§4) DNA constructs. The cDNA encoding for US28 (see Casarosa et al. in J, Biol. Chem. 276 (2001) 1133-1137) was inserted into the mammalian vector pcDNAS. Δ(2-22)-US28 and the HA-tagged versions of both WT- and Δ(2-22)-US28 were generated by PCR. Single amino acid mutations, as for E^277A- and E^277Q.US28, were introduced using the Altered Sites® II in vitro Mutagenesis System (Promega, Madison, USA), according to manufacturer's protocol. All constructs were verified by dideoxy sequencing.
as §3
(§5) E^277 was therefore mutated into glutamine, to eliminate the charge but retain the hydrogen bonding potential of the side chain, and into alanine, to eliminate both the charge and the hydrogen bonding potential.

E^277Q-US28 = E^277Q-US28 (Human cytomegalovirus, UniProt P69332, E277Q); assay type: binding, HCMV; conditions: E277Q-US28, [125I]-RANTES displacement
Source text: as §4, §3, §5

Δ(2-22)-US28 = Δ(2-22)-US28 (Human cytomegalovirus, UniProt P69332); test: cell-based; design: species or system HCMV
Source text: as §4, §2

US28 [3] = target: T1, US28; test: biochemical; assay type: binding, HCMV (strain AD169); conditions: AD169-infected HFFs
Protocol: as §1, §3

KSHV-encoded ORF74 = target: T2, KSHV-encoded ORF74 (Human herpesvirus 8 type P, UniProt Q98146); test: ORF74-mediated InsP accumulation (PLC activation) in COS-7 cells; assay type: cell-based; conditions: concentration as high as 10 µM
T2 construct: expressed in transfected cells; host or cells: COS-7
Protocol: as §2
(§6) Moreover, other GPCRs were used as controls to ascertain specificity of action of this compound. As previously reported, expression ofRCMV-encoded R33 (Gruijthuijsen et al. J. Virol. 76 (2002), 1328-1338) or KSHV-encoded ORF74 (Rosenkilde et al. 274 (1999), 956-961) also leads to constitutive activation of phospholipase C.

RCMV-encoded R33 = target: T3, RCMV-encoded R33 (Rat cytomegalovirus, UniProt O12000); test: R33-mediated InsP accumulation (PLC activation) in COS-7 cells; assay type: cell-based; conditions: concentration as high as 10 µM
T3 construct: expressed in transfected cells; host or cells: COS-7
Protocol: as §2, §6

US28 [4] = target: T1, US28; test: cell-based; design: species or system HCMV (strain AD169)
Protocol: as §1, §2

US28 [5] = test: cell-based; design: species or system HCMV (strain AD169); conditions: US28-deletion-mutant-HCMV- or mock-infected HFFs
Protocol: as §1, §2

HEK-293T cells = test: MTT test; assay type: cell-based; conditions: higher concentrations (above 10^-6M), together with the solvent
Source text: (§7) In order to test the ability of the compound of Formula X to block viral entry via US28, a reporter gene assay was used. In this assay, HEK-293T cells expressing US28 and CD4 are infected by a luciferase-containing HIV-1 reporter virus. Consequently, the level of cellular luciferase activity is proportional to HIV-1 entry. […] Luciferase activity is increased approximately 20 fold in the presence of US28 when compared to cells expressing CD4 alone (fig. 6A). […] At 10^-6M, the compound of Formula X reduces HIV-1 entry to 41 ± 8 % of control cells. Determination of a complete dose-response curve was not possible due to toxic effects of DM50 and the compound at higher concentrations, as determined by MTT test.

transfected cells = test: AlamarBlue toxicity test; assay type: cell-based; conditions: AlamarBlue assay, 2 hours incubation, data not shown
Protocol: Toxicity test. The AlamarBlue^TM assay (Serotec, Oxford, UK) was performed following the manufacturer's protocol. Briefly, transfected cells were incubated with the compound of Formula X for 2 hours, followed by the addiction of the AlamarBlue dye.
After 1 hour, the fluorescence was monitored at 560 nm excitation wavelength and 590 nm emission wavelenght in a Victor^2 (PerkinElmer, Boston, USA).

US28 [6] = target: T1, US28; test: biochemical; assay type: binding, HCMV
[7] = target: T4, human histamine H1 receptor (hH1) (Homo sapiens, UniProt P35367); test: InsP production in COS-7 cells expressing the histamine H1 receptor; assay type: cell-based; conditions: 10 µM, COS-7 cells expressing the H1 receptor
T4 construct: expressed in transfected cells; host or cells: COS-7
Protocol: as §2
Furthermore, the compound of Formula X was tested on COS-7 cells expressing the human histamine H1 receptor (hH1). Like US28, this GPCR constitutively activates PLC enzymes via Gαq/11 proteins.

[8] = tested on: US28-mediated HIV-1 entry; test: HIV-1 infection assay (luciferase reporter virus) in HEK293-T cells with CD4 and US28; assay type: cell-based; conditions: Human immunodeficiency virus 1, HEK-293T
Protocol: HIV-1 infection assay. HEK293-T cells were transiently transfected with pcDNA1-US28 and pcDNA1-CD4 using the calcium phosphate method and cultured overnight in 48 well plates. The following day, cells were incubated with different concentrations of the compound of Formula X (dissolved in DMSO) or medium (containing an equal amount of DMSO) for 2 hours before infection with an R5-tropic HIV- 1 virus containing the luciferase reporter gene under the LTR promoter. After overnight incubation, cells were washed twice and cultivated in fresh medium. 3 days after infection, the luciferase activity was quantitated using the Luciferase Assay System (Promega, Madison, USA).
as §7

[9] = IC50 InsP, inhibition of US28-mediated InsP production, COS-7 cells, N.A. = non active

T1 sequence (P69332 whole entry): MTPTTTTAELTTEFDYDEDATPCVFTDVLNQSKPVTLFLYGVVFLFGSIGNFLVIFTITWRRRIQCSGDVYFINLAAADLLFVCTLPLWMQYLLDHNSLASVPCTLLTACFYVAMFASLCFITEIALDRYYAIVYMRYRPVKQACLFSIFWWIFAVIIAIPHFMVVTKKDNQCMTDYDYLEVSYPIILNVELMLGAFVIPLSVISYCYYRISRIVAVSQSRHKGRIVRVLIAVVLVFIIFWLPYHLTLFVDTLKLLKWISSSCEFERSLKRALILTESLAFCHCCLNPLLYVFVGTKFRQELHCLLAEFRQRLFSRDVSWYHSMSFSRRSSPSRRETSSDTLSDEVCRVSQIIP
Sequence of Δ(2-22)-US28 (P69332 22-354, looked up, stated change not applied): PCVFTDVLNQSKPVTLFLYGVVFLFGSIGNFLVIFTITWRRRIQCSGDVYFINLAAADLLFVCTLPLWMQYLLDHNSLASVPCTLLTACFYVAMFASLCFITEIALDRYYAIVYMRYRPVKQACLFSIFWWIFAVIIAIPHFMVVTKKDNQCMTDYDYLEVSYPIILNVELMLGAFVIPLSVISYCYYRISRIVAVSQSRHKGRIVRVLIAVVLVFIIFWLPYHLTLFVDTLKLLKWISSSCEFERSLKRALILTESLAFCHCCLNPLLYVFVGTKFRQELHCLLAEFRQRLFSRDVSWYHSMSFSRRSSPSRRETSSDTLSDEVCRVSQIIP
Sequence of E^277Q-US28 (P69332 whole entry E277Q): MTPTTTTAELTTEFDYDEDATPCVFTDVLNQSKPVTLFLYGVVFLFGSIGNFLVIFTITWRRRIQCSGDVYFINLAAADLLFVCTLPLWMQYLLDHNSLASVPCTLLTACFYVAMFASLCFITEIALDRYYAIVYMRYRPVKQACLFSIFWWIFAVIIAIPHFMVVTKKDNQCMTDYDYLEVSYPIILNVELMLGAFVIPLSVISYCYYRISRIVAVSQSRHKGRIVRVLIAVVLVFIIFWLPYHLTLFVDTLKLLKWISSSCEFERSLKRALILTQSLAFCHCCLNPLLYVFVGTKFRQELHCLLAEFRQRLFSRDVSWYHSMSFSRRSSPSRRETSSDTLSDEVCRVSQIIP
T3 sequence (O12000 whole entry): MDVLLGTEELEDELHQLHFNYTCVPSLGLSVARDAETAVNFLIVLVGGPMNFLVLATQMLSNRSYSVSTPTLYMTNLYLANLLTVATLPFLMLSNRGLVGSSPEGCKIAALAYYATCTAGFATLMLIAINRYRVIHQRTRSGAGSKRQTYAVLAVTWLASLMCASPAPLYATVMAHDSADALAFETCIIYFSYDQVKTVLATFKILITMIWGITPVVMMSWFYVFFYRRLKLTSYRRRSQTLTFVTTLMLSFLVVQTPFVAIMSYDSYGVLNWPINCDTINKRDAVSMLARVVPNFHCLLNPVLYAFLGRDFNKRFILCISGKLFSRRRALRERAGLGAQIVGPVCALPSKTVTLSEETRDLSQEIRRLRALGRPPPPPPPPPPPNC
T4 sequence (P35367 whole entry): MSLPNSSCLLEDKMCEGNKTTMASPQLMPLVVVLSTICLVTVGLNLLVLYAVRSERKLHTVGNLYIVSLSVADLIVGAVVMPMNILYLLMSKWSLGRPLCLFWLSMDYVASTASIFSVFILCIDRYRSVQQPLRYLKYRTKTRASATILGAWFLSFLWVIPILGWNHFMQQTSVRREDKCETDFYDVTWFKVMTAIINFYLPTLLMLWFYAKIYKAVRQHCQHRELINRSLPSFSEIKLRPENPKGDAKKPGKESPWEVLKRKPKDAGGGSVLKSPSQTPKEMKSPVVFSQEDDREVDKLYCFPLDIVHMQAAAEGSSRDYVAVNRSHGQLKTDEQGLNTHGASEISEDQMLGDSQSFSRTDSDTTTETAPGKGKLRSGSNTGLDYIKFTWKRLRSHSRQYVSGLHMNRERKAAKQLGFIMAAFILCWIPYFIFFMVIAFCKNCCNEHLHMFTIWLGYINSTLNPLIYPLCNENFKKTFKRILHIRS
T2 sequence (Q98146 whole entry): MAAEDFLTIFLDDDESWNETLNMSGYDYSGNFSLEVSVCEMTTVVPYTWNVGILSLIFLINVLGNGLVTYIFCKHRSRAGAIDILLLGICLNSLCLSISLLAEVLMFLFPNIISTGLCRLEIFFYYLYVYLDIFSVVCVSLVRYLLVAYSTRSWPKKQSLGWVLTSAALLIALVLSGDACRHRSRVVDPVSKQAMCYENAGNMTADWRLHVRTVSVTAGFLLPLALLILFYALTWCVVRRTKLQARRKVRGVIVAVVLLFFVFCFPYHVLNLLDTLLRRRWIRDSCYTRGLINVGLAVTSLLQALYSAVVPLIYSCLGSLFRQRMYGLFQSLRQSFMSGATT
Sequence of E^277A-US28 (P69332 whole entry E277A): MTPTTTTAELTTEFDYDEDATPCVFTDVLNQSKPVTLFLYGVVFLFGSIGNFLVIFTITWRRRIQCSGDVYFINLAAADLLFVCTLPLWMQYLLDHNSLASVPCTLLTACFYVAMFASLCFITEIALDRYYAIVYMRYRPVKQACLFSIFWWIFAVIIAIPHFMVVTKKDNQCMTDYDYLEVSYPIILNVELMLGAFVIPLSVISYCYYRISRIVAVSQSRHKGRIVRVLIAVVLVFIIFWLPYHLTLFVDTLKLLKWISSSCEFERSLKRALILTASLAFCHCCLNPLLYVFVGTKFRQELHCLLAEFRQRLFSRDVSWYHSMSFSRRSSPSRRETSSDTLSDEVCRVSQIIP

## NCC(CCCN1CCC(O)(c2ccc(Cl)cc2)CC1)(c1ccccc1)c1ccccc1 [VUF5728]
US28 [1]
  % 10^-5 remaining activity on US28 in inositol phosphate assay: 10%

## N#CC(CCCN1CCC(C(=O)O)CC1)(c1ccccc1)c1ccccc1 [VUF5718]
US28 [1]
  % 10^-5 remaining activity on US28 in inositol phosphate assay: 85%

## O=C(NCC(CCCN1CCC(O)(c2ccc(Cl)cc2)CC1)(c1ccccc1)c1ccccc1)NC1CCNCC1 [VUF5717]
US28 [1]
  % 10^-5 remaining activity on US28 in inositol phosphate assay: 100%

## N#CC(CCCN1CCC(O)(c2ccc(Cl)cc2)CC1)(c1ccccc1)c1ccccc1 [Formula X]
US28 [2]
  Bmax value of [125I]-RANTES: 380 ± 36 fmol/mg protein
E^277A-US28
  affinity compared to WT-US28: markedly reduced
E^277Q-US28
  affinity compared to WT-US28: markedly reduced
US28 [1]; COS-7 cells
  kind of inverse agonism at US28 (inhibition of signaling complete): full inverse agonist
US28 [1]; [9]
  IC50: 3.5 µM
US28 [1]
  % 10^-5 remaining activity on US28 in inositol phosphate assay: 10%
US28 [1]; pIC50 of US28 mediated InsP production, COS-7 cells, WT-US28
  IC50: 3.47 µM
Δ(2-22)-US28
  IC50: 4.47 µM
Δ(2-22)-US28; Δ(2-22)-US28, COS-7 cells
  inhibition of constitutive signaling: totally inhibits
US28 [3]; IC50 of [125I]-RANTES displacement
  IC50: 0.708 µM
US28 [3]; pIC50 of [125I]-RANTES displacement
  IC50: 0.708 µM
KSHV-encoded ORF74
  modulation of ORF74-mediated PLC activation: does not modulate
RCMV-encoded R33
  modulation of R33-mediated PLC activation: does not modulate
US28 [4]
  IC50: 0.776 µM
US28 [5]
  effect on InsP signaling: does not affect
HEK-293T cells
  toxicity by MTT test: toxic effects
Transfected cells
  cellular toxicity: did not show cellular toxicity
US28 [6]
  IC50: 8.4 µM
[7]
  basal or histamine-induced production of InsP: does not alter
[8]; read-out: HIV-1 entry, % of control cells
  activity at 1 µM: 41 ± 8%
[8]; read-out: inhibition of viral entry
  inhibition at 1 µM: 60%

## OC1(c2ccc(Cl)cc2)CCN(CCCOc2ccccc2)CC1 [VUF5714]
US28 [1]
  % 10^-5 remaining activity on US28 in inositol phosphate assay: 77%

## N#CC(CCCN1CCC(c2ccc(Cl)cc2)CC1)(c1ccccc1)c1ccccc1 [VUF5662]
US28 [1]; [9]
  IC50: 14 µM
US28 [1]
  % 10^-5 remaining activity on US28 in inositol phosphate assay: 60%
  loss in inverse agonistic potency: five- to ten-fold
US28 [6]; [125I]-RANTES binding at US28, COS-7 cells, N.A. = non active, read-out: IC50 binding
  IC50: 10.5 µM

## N#CC(CCCN1CCN(c2ccc(Cl)cc2)CC1)(c1ccccc1)c1ccccc1 [VUF5658]
US28 [1]
  % 10^-5 remaining activity on US28 in inositol phosphate assay: 88%
  inverse agonistic effect at US28 relative to the compound of Formula X (statement in words): inactive

## OC1(c2ccc(Cl)cc2)CCN(CCCC(c2ccccc2)c2ccccc2)CC1 [VUF5667]
US28 [1]; [9]
  IC50: 4.2 µM
US28 [1]
  % 10^-5 remaining activity on US28 in inositol phosphate assay: 23%
  inverse agonistic effect at US28 relative to the compound of Formula X (statement in words): does not affect the activity
US28 [6]
  IC50: 5.9 µM

## CC(C)(C)c1ccc(C(O)CCCN2CCC(C(O)(c3ccccc3)c3ccccc3)CC2)cc1 (stereo not drawn) [Terfenadine, α-[4-(1,1-dimethylethyl)phenyl]-4-(hydroxydiphenylmethyl)-1-piperidinebutanol, reference compound]
US28 [1]
  % 10^-5 remaining activity on US28 in inositol phosphate assay: 15%

## N#CC1(CCCN2CCC(O)(c3ccc(Cl)cc3)CC2)c2ccccc2CSc2ccccc21 (stereo not shown) [VUF5727]
US28 [1]
  % 10^-5 remaining activity on US28 in inositol phosphate assay: 14%

## O=C(CCCN1CCC(O)(c2ccc(Cl)cc2)CC1)c1ccccc1 [VUF5666]
US28 [1]
  % 10^-5 remaining activity on US28 in inositol phosphate assay: 70%

## N#CC1(CCCN2CCC(O)(c3ccc(Cl)cc3)CC2)c2ccccc2CCc2ccccc21 [VUF5713]
US28 [1]; [9]
  IC50: 5.3 µM
US28 [1]
  % 10^-5 remaining activity on US28 in inositol phosphate assay: -5%
  inverse agonistic effect at US28 relative to the compound of Formula X (statement in words): comparable potencies
US28 [6]
  IC50: 9.6 µM

## N#CC(CCCN1CCC(C(N)=O)CC1)(c1ccccc1)c1ccccc1 [VUF5720]
US28 [1]
  % 10^-5 remaining activity on US28 in inositol phosphate assay: 87%

## N#CC(CCCN1CC=C(c2ccc(Cl)cc2)CC1)(c1ccccc1)c1ccccc1 [VUF5664]
US28 [1]
  % 10^-5 remaining activity on US28 in inositol phosphate assay: 83%

## N#CC(O)(CCCN1CCC(O)(c2ccc(Cl)cc2)CC1)c1ccccc1 (stereo not shown) [VUF5715]
US28 [1]
  inverse agonistic effect at US28 relative to the compound of Formula X (statement in words): loss of effect

## N#CC(CCCN1CCC(O)(c2ccccc2)CC1)(c1ccccc1)c1ccccc1 [VUF5660]
US28 [1]; [9]
  IC50: 29 µM
US28 [1]
  % 10^-5 remaining activity on US28 in inositol phosphate assay: 60%
  loss in inverse agonistic potency: five- to ten-fold
US28 [6]
  IC50: 35 µM
